Here are results for seven compounds from patent US7560568B2, “Thiazole compounds” (SmithKline Beecham Corporation, priority 2004, dated 2009).

Read-outs that look alike come from different tables or passages of the source. Bounds are passed on as bounds.

In one test the target is T1, PLK1 kinase domain (Homo sapiens, UniProt P53350).
T1 construct: made in house; host or cells: baculovirus infected T. ni cells
The experiment in a line: Assay for Inhibition of PLK1 (SPA, 33P-ATP, His-tagged PLK kinase domain). The test is classed as biochemical. Particulars: 2 nM PLK1 kinase domain, 1 μM ATP, 1.25 hrs at 22° C.; for IC50: read-out: Average pIC50 PLK Enzyme Inhibition (converted). Here is the method:
I. Assay for Inhibition of PLK1
A. Preparation of 6× N-terminal His-tagged PLK kinase domain 6× N-terminal His-tagged PLK kinase domain (amino acids 21-346 preceded by MKKGHHHHHHD (SEQ ID:NO. 1) may be prepared from baculovirus infected T. ni cells under polyhedrin promoter control. All subsequent procedures are performed at 4° C. Cells are lysed in 25 mM HEPES, 200 mM NaCl, 25 mM imidazole; pH 8.0. The homogenate is centrifuged at 14K rpm in a SLA-1500 rotor for 40 min and the supernatant filtered through a 1.2 micron filter. The supernatant is loaded onto a Nickel chelating Sepharose (Amersham Pharmacia) column and washed with 25 mM HEPES, 500 mM NaCl, 25 mM imidazole; pH 8.0. The column is then washed with a 16.6% B step where buffer B is 25 mM HEPES, 500 mM NaCl, 300 mM imidazole; pH 8.0. Protein is eluted using a 10-column volume linear gradient from 16.6% B to 100% B. Fractions were pooled using absorbance at 280 nm. PLK is concentrated using a 10 kDa molecular weight cutoff membrane and then loaded onto a Superdex 75 gel filtration (Amersham Pharmacia) column equilibrated in 25 mM HEPES, 1 mM DTT, 500 mM NaCl; pH 8.0. Protein was pooled by absorbance at 280 nm and then quality controlled using mass spectrometry and SDS-PAGE. PLK was aliquoted and stored at −80° C.
B. Enzyme activity +/− inhibitors was determined as follows: Compounds are added to the plate (1 μl in 100% DMSO). DMSO (5% final) and EDTA (62.5 mM final in 20 μL reaction) are used as controls. Reaction Mix is prepared as follows at 22° C.: • 25 mM HEPES, pH 7.2 • 15 mM MgCl2 • 1 μM ATP • 0.05 μCi/well ^33P-γ ATP (10 Ci/mMol) • 1 μM substrate peptide (Biotin-Ahx-SFNDTLDFD) SEQ ID:No. 2. • 0.15 mg/ml BSA • 1 mM DTT • 2 nM PLK1 kinase domain (added last)
Reaction Mix (20 μl) is added per well to each well immediately upon addition of enzyme and incubated 1.25 hrs. at 22° C. The enzymatic reactions are stopped with 50 μl of SPA bead/EDTA mix (50 mM EDTA, 4.0 mg/ml Streptavidin-coated SPA beads in Standard Dulbecco's PBS (without Mg^2+ and Ca^2+), 50 μM ATP). Plates are sealed with clear plastic seals, spun at 500×g for 1 min. or settled overnight, and plates counted in Packard TopCount for 30 seconds/well.
In Table 1, +=pIC50<5; ++=pIC50 5-7; +++=pIC50>7.

Test [1] concerns H460 lung tumor cell line. The experiment in a line: Methylene Blue Growth Inhibition Assay, H460. It is filed as cell-based, human. Particulars: H460, 3 days, read-out: MeB Cell Line IC50. Here is the method: (§1) II. Methylene Blue Growth Inhibition Assay
(§2) Normal Human foreskin fibroblasts (HFF) and human colon (HCT116, RKO), lung (H460), prostate (PC3), and breast tumor (MCF7) cell lines are cultured in high glucose DMEM (Life Technologies) containing 10% fetal bovine serum (FBS) at 37° C. in a humidified 10% CO2, 90% air incubator. Cells are harvested using trypsin/EDTA, counted using a haemocytometer, and plated in 100 μl of the appropriate media, at the following densities, in a 96-well tissue culture plate (Falcon 3075): HFF 5,000 cells/well, HCT116 3,000 cells/well, RKO 2,500 cells/well, H460 2,000 cells/well, PC3 8,000 cells/well, MCF7 4,000 cells/well. The next day, compounds are diluted in DMEM containing 100 μg/ml gentamicin, at twice the final required concentration, from 10 mM stock solutions in DMSO. 100 μl/well of these dilutions are added to the 100 μl of media currently on the cell plates. Medium containing 0.6% DMSO is added to control wells. Compounds diluted in DMEM are added to all cell lines. The final concentration of DMSO in all wells is 0.3%. Cells are incubated at 37° C., 10% CO2 for 3 days. Medium is removed by aspiration. Cell biomass is estimated by staining cells with 80 μl per well methylene blue (Sigma M9140, 0.5% in 50:50 ethanol:water), and incubation at room temperature for at least 30 minutes. Stain is removed, and the plates rinsed by immersion in water, and air-dried. To release stain from the cells 100 μl of solubilization solution is added (1% N-lauroyl sarcosine, Sodium salt, Sigma L5125, in PBS), and plates are left at room temperature for about 30 minutes. Optical density at 620 nm is measured on a microplate reader. Percent inhibition of cell growth is calculated relative to vehicle treated control wells. Concentration of compound that inhibits 50% of cell growth (IC50) is interpolated using nonlinear regression (Levenberg-Marquardt) and the equation, y=Vmax*(1−(x/(K+x)))+Y2, where Y2=0 and “K” is equal to the IC50.
(§3) In Table 1, +=10−>30 μM; ++=1-10 μM: +++=<1 μM.

Test [2] relates to Normal Human foreskin fibroblasts (HFF). Kind of test: Methylene Blue Growth Inhibition Assay, HFF. It is filed as cell-based. Particulars: 3 days, read-out: MeB Cell Line IC50. On the procedure: as §1, §2, §3
Test [3] relates to HCT116 colon tumor cell line. Kind of test: Methylene Blue Growth Inhibition Assay, HCT116. The test is classed as cell-based, human. Particulars: HCT116, 3 days, read-out: MeB Cell Line IC50. On the procedure: as §1, §2, §3
The subject of test [4] is MCF7 breast tumor cell line. The experiment in a line: Methylene Blue Growth Inhibition Assay, MCF7. The test is classed as cell-based, human. Particulars: MCF7, 3 days, read-out: MeB Cell Line IC50. On the procedure:
as §1, §2, §3

In test [5] the test system is PC3 prostate tumor cell line. Kind of test: Methylene Blue Growth Inhibition Assay, PC3. The test is classed as cell-based, human. Particulars: PC3, 3 days, read-out: MeB Cell Line IC50. On the procedure: as §1, §2, §3
In test [6] the test system is RKO colon tumor cell line. Kind of test: Methylene Blue Growth Inhibition Assay, RKO. Particulars: 3 days, read-out: MeB Cell Line IC50. The test is classed as cell-based, human. Here is the method:
as §1, §2, §3

T1 sequence (P53350 21-346): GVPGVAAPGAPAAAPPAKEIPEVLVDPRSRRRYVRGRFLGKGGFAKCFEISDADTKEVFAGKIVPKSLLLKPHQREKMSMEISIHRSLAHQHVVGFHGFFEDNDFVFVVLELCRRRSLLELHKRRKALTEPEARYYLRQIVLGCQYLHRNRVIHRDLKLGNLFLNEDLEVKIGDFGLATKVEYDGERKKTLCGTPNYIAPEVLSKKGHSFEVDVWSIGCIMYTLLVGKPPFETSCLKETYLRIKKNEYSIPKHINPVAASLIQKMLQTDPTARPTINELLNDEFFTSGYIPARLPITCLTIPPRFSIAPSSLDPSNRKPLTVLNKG

With `NC(=O)c1sc(-n2cnc3cc(Cl)ccc32)nc1OCc1ccccc1C(F)(F)F` [Example 2B, 2-(5-chloro-1H-benzimidazol-1-yl)-4-({[2-(trifluoromethyl)phenyl]methyl}oxy)-1,3-thiazole-5-carboxamide], the IC50 was 0.1 to 10 µM on PLK1 kinase domain; greater than 10 µM in test [1] (Homo sapiens, NCI-H460, 72 h); greater than 10 µM in test [2] (Homo sapiens, 72 h); greater than 10 µM in test [3] (Homo sapiens, HCT-116, 72 h); greater than 10 µM in test [4] (Homo sapiens, 72 h); greater than 10 µM in test [5] (Homo sapiens, 72 h). In addition, in test [6] (Homo sapiens, 72 h), the IC50 is greater than 10 µM.
With `COc1cc2ncn(-c3nc(OCc4ccccc4C(F)(F)F)c(C(N)=O)s3)c2cc1OC` [Example 6, 2-[5,6-Bis(methyloxy)-1H-benzimidazol-1-yl]-4-({[2-(trifluoromethyl)phenyl]-methyl}oxy)-1,3-thiazole-5-carboxamide], the IC50 on PLK1 kinase domain is less than 0.1 µM; in test [1] (Homo sapiens, NCI-H460, 72 h) it was 1 to 10 µM; in test [2] (Homo sapiens, 72 h), greater than 10 µM; in test [3] (Homo sapiens, HCT-116, 72 h) it was 1 to 10 µM; in test [4] (Homo sapiens, 72 h) it was 1 to 10 µM; in test [5] (Homo sapiens, 72 h), 1 to 10 µM. Moreover, the IC50 in test [6] (Homo sapiens, 72 h) was in the range of 1 to 10 µM.
Take `NC(=O)c1sc(-n2cnc3ccc(Cl)cc32)nc1OCc1ccccc1C(F)(F)F` [Example 2A, 2-(6-Chloro-1H-benzimidazol-1-yl)-4-({[2-(trifluoromethyl)phenyl]methyl}oxy)-1,3-thiazole-5-carboxamide]: the IC50 was less than 0.1 µM on PLK1 kinase domain; greater than 10 µM in test [1] (Homo sapiens, NCI-H460, 72 h); greater than 10 µM in test [2] (Homo sapiens, 72 h); greater than 10 µM in test [3] (Homo sapiens, HCT-116, 72 h); 1 to 10 µM in test [4] (Homo sapiens, 72 h); greater than 10 µM in test [5] (Homo sapiens, 72 h). The IC50 in test [6] (Homo sapiens, 72 h) was in the range of 1 to 10 µM.
As for “2-(6-Methoxy-1H-benzimidazol-1-yl)-4-({[2-(trifluoromethyl)phenyl]methyl}oxy)-1,3-thiazole-5-carboxamide and 2-(5-methoxy-1H-benzimidazol-1-yl)-4-({[2-(trifluoromethyl)phenyl]methyl}oxy)-1,3-thiazole-5-carboxamide [Example 3]”, the “Average pIC50 PLK Enzyme Inhibition” value on PLK1 kinase domain was “+++ (+++=pIC50>7)”. Also, the IC50 in test [1], in test [2], in test [3], in test [4], in test [5] and in test [6] was greater than 10 µM in each case.
`NC(=O)c1sc(-n2cnc3ccc(F)cc32)nc1OCc1ccccc1C(F)(F)F` [Example 4, 2-(6-Fluoro-1H-benzimidazol-1-yl)-4-({[2-(trifluoromethyl)phenyl]methyl}oxy)-1,3-thiazole-5-carboxamide]: the IC50 was 0.1 to 10 µM at PLK1 kinase domain; greater than 10 µM in test [1] (Homo sapiens, NCI-H460, 72 h); greater than 10 µM in test [2] (Homo sapiens, 72 h); greater than 10 µM in test [3] (Homo sapiens, HCT-116, 72 h); greater than 10 µM in test [4] (Homo sapiens, 72 h); greater than 10 µM in test [5] (Homo sapiens, 72 h). Also, the IC50 in test [6] (Homo sapiens, 72 h) is greater than 10 µM.
`Cc1cc2ncn(-c3nc(OCc4ccccc4C(F)(F)F)c(C(N)=O)s3)c2cc1C` [Example 5, 2-(5,6-Dimethyl-1H-benzimidazol-1-yl)-4-({[2-(trifluoromethyl)phenyl]methyl}oxy)-1,3-thiazole-5-carboxamide]: the IC50 at PLK1 kinase domain is 0.1 to 10 µM; in test [1] (Homo sapiens, NCI-H460, 72 h), greater than 10 µM; in test [2] (Homo sapiens, 72 h), greater than 10 µM; in test [3] (Homo sapiens, HCT-116, 72 h), greater than 10 µM; in test [4] (Homo sapiens, 72 h), greater than 10 µM; in test [5] (Homo sapiens, 72 h), greater than 10 µM. In test [6] (Homo sapiens, 72 h), the IC50 is greater than 10 µM.
With `NC(=O)c1sc(-n2cnc3ccccc32)nc1OCc1ccccc1C(F)(F)F` [Example 1, 2-(1H-Benzimidazol-1-yl)-4-({[2-(trifluoromethyl)phenyl]methyl}-oxy)-1,3-thiazole-5-carboxamide], the IC50 at PLK1 kinase domain was less than 0.1 µM; in test [1] (Homo sapiens, NCI-H460, 72 h), greater than 10 µM; in test [2] (Homo sapiens, 72 h) it was greater than 10 µM; in test [3] (Homo sapiens, HCT-116, 72 h) it was greater than 10 µM; in test [4] (Homo sapiens, 72 h), greater than 10 µM; in test [5] (Homo sapiens, 72 h) it was greater than 10 µM. Further, the IC50 in test [6] (Homo sapiens, 72 h) is greater than 10 µM.
